Consider 15 compounds from patent US5852210A, “Cinnamic acid derivatives” (G. D. Searle & Co., priority 1997, dated 1998).

As usually defined, the IC50 is the concentration that gives 50% inhibition.

The structures appear in SMILES notation. Structures can show the parent of a compound that is named as a salt. Some results are limits rather than exact numbers.

Assay [1] addresses T1, Human fibrinogen receptor (αIIb β3) (Homo sapiens, UniProt P05106+P08514).
T1 construct: Human fibrinogen receptor (αIIb β3) was purified from outdated platelets; from tissue; host or cells: human outdated platelets
The experiment in a line: Purified IIb/IIIa receptor assay (solid phase receptor assay). The note with it: inhibition of binding of biotinylated human vitronectin (1 nM) to purified receptor; Table I. How it is done:
(§1) The activity of the compounds of the present invention was tested in the following assays.
Human fibrinogen receptor (αIIb β3) was purified from outdated platelets. (Pytela, R., Pierschbacher, M. D., Argraves, S., Suzuki, S., and Rouslahti, E. "Arginine-Glycine-Aspartic acid adhesion receptors", Methods in Enzymology 144(1987):475-489.) Human vitronectin was purified from fresh frozen plasma as described in Yatohgo, T., Izumi, M., Kashiwagi, H., and Hayashi, M., "Novel purification of vitronectin from human plasma by heparin affinity chromatography," Cell Structure and Function 13(1988):281-292. Biotinylated human vitronectin was prepared by coupling NHS-biotin from Pierce Chemical Company (Rockford, Ill.) to purified vitronectin as previously described. (Charo, I. F., Nannizzi, L., Phillips, D. R., Hsu, M. A., Scarborough, R. M., "Inhibition of fibrinogen binding to GP IIb/IIIa by a GP IIIa peptide", J. Biol. Chem. 266(3) (1991): 1415-1421.) Assay buffer, OPD substrate tablets, and RIA grade BSA were obtained from Sigma (St. Louis, Mo.). Anti-biotin antibody was obtained from Calbiochem (La Jolla, Calif.). Linbro microtiter plates were obtained from Flow Labs (McLean, Va.). ADP reagent was obtained from Sigma (St. Louis, Mo.).
(§2) Solid Phase Receptor Assays
This assay is essentially the same reported in Niiya, K., Hodson, E., Bader, R., Byers-Ward, V. Koziol, J. A., Plow, E. F. and Ruggeri, Z. M., "Increased surface expression of the membrane glycoprotein IIb/IIIa complex induced by platelet activation: Relationships to the binding of fibrinogen and platelet aggregation", Blood 70 (1987):475-483. The purified human fibrinogen receptor (αIIb β3) was diluted from stock solutions to 1.0 μg/mL in Tris-buffered saline containing 1.0 mM Ca^++, Mg^++, and Mn^++, pH 7.4 (TBS^+++). The diluted receptor was immediately transferred to Linbro microtiter plates at 100 μL/well (100 ng receptor/well). The plates were sealed and incubated overnight at 4° C. to allow the receptor to bind to the wells. All remaining steps were at room temperature. The assay plates were emptied and 200 μL of 1% RIA grade BSA in TBS^+++ (TBS^+++ /BSA) were added to block exposed plastic surfaces. Following a 2 hour incubation, the assay plates were washed with TBS^+++ using a 96 well plate washer. Logarithmic serial dilution of the test compound and controls were made starting at a stock concentration of 2 mM and using 2 nM biotinylated vitronectin in TBS^+++ /BSA as the diluent. This premixing of labeled ligand with test (or control) ligand, and subsequent transfer of 50 μL aliquots to the assay plate was carried out with a CETUS Propette robot; the final concentration of the labeled ligand was 1 nM and the highest concentration of test compound was 1.0×10^-4 M. The competition occurred for two hours after which all wells were washed with a plate washer as before. Affinity purified horseradish peroxidase labeled goat anti-biotin antibody was diluted 1:3000 in TBS^+++ /BSA and 125 μL were added to each well. After 30 minutes, the plates were washed and incubated with […]/H2 O2 substrate in 100 mM/L citrate buffer, pH 5.0. The plate was read with a microtiter plate reader at a wavelength of 450 nm and when the maximum-binding control wells reached an absorbance of about 1.0, the final A450 were recorded for analysis. The data were analyzed using a macro written for use with the EXCEL™ spreadsheet program. The mean, standard deviation, and % CV were determined for duplicate concentrations. The mean A450 values were normalized to the mean of four maximum-binding controls (no competitor added) (B-MAX). The normalized values were subjected to a four parameter curve fit algorithm, [Robard et al., Int.

The target of assay [2] is T2, Human vitronectin receptor (αv β3) (Homo sapiens, UniProt P05106+P06756).
T2 construct: Human vitronectin receptor (αv β3) was purified from human placenta; from tissue; host or cells: human placenta
T2 sequence (P06756 31-889 limits assumed): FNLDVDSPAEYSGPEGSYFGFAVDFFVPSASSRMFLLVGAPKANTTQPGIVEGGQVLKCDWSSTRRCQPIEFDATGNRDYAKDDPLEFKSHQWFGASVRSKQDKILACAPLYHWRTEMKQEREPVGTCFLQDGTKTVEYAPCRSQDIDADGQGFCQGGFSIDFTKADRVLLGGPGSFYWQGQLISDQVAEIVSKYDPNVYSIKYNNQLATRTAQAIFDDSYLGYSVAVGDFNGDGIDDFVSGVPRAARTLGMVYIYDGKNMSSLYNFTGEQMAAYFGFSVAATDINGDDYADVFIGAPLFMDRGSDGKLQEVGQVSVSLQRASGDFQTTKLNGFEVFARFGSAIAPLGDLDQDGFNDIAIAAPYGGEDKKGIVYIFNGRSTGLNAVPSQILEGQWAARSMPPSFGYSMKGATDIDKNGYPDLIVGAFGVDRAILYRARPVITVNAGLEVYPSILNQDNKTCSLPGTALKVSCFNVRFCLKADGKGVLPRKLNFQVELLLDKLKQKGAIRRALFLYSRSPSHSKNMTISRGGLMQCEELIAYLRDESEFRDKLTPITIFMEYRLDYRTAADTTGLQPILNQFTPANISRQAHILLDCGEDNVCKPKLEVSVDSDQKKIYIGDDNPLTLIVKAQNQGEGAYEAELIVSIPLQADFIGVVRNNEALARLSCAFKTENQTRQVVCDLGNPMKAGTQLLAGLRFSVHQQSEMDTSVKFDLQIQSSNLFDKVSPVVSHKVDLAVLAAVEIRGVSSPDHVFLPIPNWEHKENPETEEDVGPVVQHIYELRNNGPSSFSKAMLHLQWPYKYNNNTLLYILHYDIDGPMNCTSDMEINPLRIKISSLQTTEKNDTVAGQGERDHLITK
T2 sequence (P06756 891-1048 limits assumed): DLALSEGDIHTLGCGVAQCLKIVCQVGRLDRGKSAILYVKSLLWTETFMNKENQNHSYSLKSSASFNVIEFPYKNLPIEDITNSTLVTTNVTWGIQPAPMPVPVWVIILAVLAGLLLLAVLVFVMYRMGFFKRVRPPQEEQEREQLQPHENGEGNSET
T2 sequence (P05106 27-788): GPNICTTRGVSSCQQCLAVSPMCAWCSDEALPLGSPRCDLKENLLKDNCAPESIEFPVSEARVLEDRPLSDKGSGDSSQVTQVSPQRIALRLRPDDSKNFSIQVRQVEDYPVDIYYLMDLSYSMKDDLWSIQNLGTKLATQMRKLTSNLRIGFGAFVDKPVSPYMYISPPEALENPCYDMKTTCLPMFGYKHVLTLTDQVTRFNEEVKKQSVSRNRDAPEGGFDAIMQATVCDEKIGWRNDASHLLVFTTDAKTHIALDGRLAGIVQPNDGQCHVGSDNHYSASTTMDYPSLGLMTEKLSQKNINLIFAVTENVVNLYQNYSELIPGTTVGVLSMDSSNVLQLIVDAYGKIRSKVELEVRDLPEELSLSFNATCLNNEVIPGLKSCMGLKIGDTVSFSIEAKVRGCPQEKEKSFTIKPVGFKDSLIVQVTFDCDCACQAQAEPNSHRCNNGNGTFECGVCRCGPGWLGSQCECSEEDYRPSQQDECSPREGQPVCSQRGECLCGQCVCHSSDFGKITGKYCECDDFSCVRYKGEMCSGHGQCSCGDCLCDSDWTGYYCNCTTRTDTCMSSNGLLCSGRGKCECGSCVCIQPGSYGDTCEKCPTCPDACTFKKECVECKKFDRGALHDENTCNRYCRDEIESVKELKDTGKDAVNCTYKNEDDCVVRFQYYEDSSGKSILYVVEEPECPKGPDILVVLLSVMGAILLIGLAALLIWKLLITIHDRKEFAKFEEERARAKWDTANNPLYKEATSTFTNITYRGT
Briefly: Vitronectin adhesion assay (solid phase receptor assay, αvβ3). Type of assay: binding. The note with it: inhibition of binding of biotinylated human vitronectin (1 nM) to purified receptor; Table I; read-out: AvB3 IC50. How it is done: as §1
Human vitronectin receptor (αv β3) was purified from human placenta as previously described [Pytela et al., Methods in Enzymology, 144:475-489 (1987)]. Human vitronectin was purified from fresh frozen plasma as previously described [Yatohgo et al., Cell Structure and Function, 13:281-292 (1988)]. Biotinylated human vitronectin was prepared by coupling NHS-biotin from Pierce Chemical Company (Rockford, Ill.) to purified vitronectin as previously described [Charo et al., J. Biol. Chem., 266(3):1415-1421 (1991)]. Assay buffer, OPD substrate tablets, and RIA grade BSA were obtained from Sigma (St. Louis, Mo.). Anti-biotin antibody was obtained from Calbiochem (La Jolla, Calif.). Linbro microtiter plates were obtained from Flow Labs (McLean, Va.). ADP reagent was obtained from Sigma (St. Louis, Mo.).
as §2
This assay was essentially the same as previously reported [Niiya et al., Blood, 70:475-483 (1987)]. The purified human vitronectin receptor (αv β3) was diluted from stock solutions to […] in Tris-buffered saline containing 1.0 mM Ca^++, Mg^++, and Mn^++, pH 7.4 (TBS^+++). The diluted receptor was immediately transferred to Linbro microtiter plates at 100 μL/well (100 ng receptor/well). The plates were sealed and incubated overnight at 4° C. to allow the receptor to bind to the wells. All remaining steps were at room temperature. The assay plates were emptied and 200 μL, of 1% RIA grade BSA in TBS^+++ (TBS^+++ /BSA) were added to block exposed plastic surfaces. Following a 2 hour incubation, the assay plates were washed with TBS^+++ using a 96 well plate washer. Logarithmic serial dilution of the test compound and controls were made starting at a stock concentration of 2 mM and using 2 nM biotinylated vitronectin in TBS^+++ /BSA as the diluent. This premixing of labeled ligand with test (or control) ligand, and subsequent transfer of 50 μL aliquots to the assay plate was carried out with a CETUS Propette robot; the final concentration of the labeled ligand was 1 nM and the highest concentration of test compound was 1.0×10^-4 M. The competition occurred for two hours after which all wells were washed with a plate washer as before. Affinity purified horseradish peroxidase labeled goat anti-biotin antibody was diluted 1:3000 in TBS^+++ /BSA and 125 μL were added to each well. After 30 minutes, the plates were washed and incubated with OPD/H2 O2 substrate in 100 mM/L Citrate buffer, pH 5.0. The plate was read with a microtiter plate reader at a wavelength of 450 nm and when the maximum-binding control wells reached an absorbance of about 1.0, the final A450 were recorded for analysis. The data were analyzed using a macro written for use with the EXCEL™ spreadsheet program. The mean, standard deviation, and % CV were determined for duplicate concentrations. The mean A450 values were normalized to the mean of four maximum-binding controls (no competitor added) (B-MAX). The normalized values were subjected to a four parameter curve fit algorithm [Rodbard et al., Int.

T1 sequence (P08514 32-887 limits assumed): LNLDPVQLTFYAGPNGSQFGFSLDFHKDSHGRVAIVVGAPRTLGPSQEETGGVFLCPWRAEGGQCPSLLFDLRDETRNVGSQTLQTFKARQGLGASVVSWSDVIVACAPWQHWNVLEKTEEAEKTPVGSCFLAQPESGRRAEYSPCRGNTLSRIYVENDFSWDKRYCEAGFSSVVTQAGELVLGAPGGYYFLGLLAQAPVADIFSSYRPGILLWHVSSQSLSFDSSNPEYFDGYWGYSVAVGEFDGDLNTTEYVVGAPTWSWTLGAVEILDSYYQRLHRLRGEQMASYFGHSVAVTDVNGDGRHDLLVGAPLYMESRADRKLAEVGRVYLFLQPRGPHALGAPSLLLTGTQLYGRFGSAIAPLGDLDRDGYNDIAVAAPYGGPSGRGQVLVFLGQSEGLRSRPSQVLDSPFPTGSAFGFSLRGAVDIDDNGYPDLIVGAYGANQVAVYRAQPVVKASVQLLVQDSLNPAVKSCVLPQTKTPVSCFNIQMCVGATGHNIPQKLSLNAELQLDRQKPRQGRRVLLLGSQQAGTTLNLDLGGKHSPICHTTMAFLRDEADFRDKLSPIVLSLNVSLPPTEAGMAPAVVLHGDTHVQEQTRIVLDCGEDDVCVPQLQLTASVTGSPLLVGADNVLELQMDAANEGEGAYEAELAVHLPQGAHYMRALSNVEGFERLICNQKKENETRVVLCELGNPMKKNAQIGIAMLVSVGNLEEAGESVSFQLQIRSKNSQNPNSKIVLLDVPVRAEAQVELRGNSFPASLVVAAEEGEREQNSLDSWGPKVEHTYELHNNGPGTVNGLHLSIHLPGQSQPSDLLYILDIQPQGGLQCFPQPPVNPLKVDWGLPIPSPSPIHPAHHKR
T1 sequence (P08514 891-1039 limits assumed): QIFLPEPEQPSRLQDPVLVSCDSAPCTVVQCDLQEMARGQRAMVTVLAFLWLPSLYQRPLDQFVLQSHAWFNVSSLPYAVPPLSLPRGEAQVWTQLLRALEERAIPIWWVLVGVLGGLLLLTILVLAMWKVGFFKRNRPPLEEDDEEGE
T1 sequence (P05106 27-788): as the sequence (P05106 27-788) above

Consider `N=C(N)Nc1cccc(C(=O)Nc2ccc(/C=C/C(=O)O)cc2C(F)(F)F)c1` [Example 12, 3-[4-[[[3-[(aminoiminomethyl)amino]phenyl]carbonyl]amino]-3-(trifluoromethyl)phenyl]-2E-propenoic acid, trifluoroacetate salt], for which the IC50 in assay [1] came out at 670 nM; in assay [2], 155 nM.
As for `Cc1cc(/C=C/C(=O)O)cc(C)c1NC(=O)c1cccc(NC(=N)N)c1` [Example 13, 3-[4-[[[3-[(aminoiminomethyl)amino]phenyl]carbonyl]-amino]-3,5-dimethylphenyl]-2E-propenoic acid, trifluoroacetate salt], the results for the IC50 in assay [1] and in assay [2] were 2160 nM and 23.1 nM, respectively.
On the same counts, the results for `Cc1cc(/C=C/C(=O)O)cc(Cl)c1NC(=O)c1cccc(NC(=N)N)c1` [Example 15, 3-[4-[[[3-[(aminoiminomethyl)amino]phenyl]carbonyl]-amino]-3-chloro-5-methylphenyl]-2E-propenoic acid, trifluoroacetate salt] are 2620 nM and 28.8 nM.
On the same counts, the results for `N=C(N)Nc1cccc(C(=O)Nc2ccc(/C=C/C(=O)O)c3ccccc23)c1` [Example 16, 3-[4-[[[3-[(aminoiminomethyl)amino]phenyl]carbonyl]-amino]naphthalen-1-yl]-2E-propenoic acid, trifluoroacetate salt] are 25.4 nM and 50.9 nM.
As for `Cc1cc(/C=C/C(=O)O)ccc1NC(=O)c1cccc(NC2=NCCCN2)c1` [Example 18, 3-[3-methyl-4-[[[3-[(1,4,5,6-tetrahydropyrimidin-2-yl)amino]phenyl]carbonyl]amino]phenyl]propenoic acid, trifluoroacetate salt], the IC50 stood at 181 nM in assay [1] and 0.46 nM in assay [2].
Regarding `CCc1cc(/C=C/C(=O)O)ccc1NC(=O)c1cccc(NC2=NCCCN2)c1` [Example 19, 3-[3-ethyl-4-[[[3-[(1,4,5,6-tetrahydropyrimidin-2-yl)amino]phenyl]carbonyl]amino]phenyl]propenoic acid, trifluoroacetate salt], the IC50 in assay [1] is 439 nM; in assay [2], 0.53 nM.
On the same counts, the results for `CCc1cc(/C=C/C(=O)O)ccc1NC(=O)c1cccc(NC2=NCCN2)c1` [Example 21, 3-[4-[[[3-[(4,5-dihydro-1H-imidazol-2-yl)amino]-phenyl]carbonyl]amino]-3-ethylphenyl]propenoic acid, trifluoroacetate salt] are 125 nM and 0.49 nM.
Taken in the same sequence, the figures for `O=C(O)/C=C/c1ccc(NC(=O)c2cccc(NC3=NCCCN3)c2)c(Cl)c1` [Example 22, 3-[3-chloro-4-[[[3-[(1,4,5,6-tetrahydropyrimidin-2-yl)amino]phenyl]carbonyl]amino]phenyl]propenoic acid, trifluoroacetate salt] were 234 nM and 0.48 nM.
Taken in the same sequence, the figures for `O=C(O)/C=C/c1ccc(NC(=O)c2cccc(NC3=NCCN3)c2)c(Cl)c1` [Example 23, 3-[3-chloro-4-[[[3-[(4,5-dihydro-1H-imidazol-2-yl)amino]-phenyl]carbonyl]amino]phenyl]-2E-propenoic acid, trifluoroacetate salt] were 80.3 nM and 0.31 nM.
As for `Cc1cc(/C=C/C(=O)O)cc(C)c1NC(=O)c1cccc(NC2=NCCCN2)c1` [Example 24, 3-[3,5-dimethyl-4-[[[3-[(1,4,5,6-tetrahydropyrimidin-2-yl)amino]phenyl]carbonyl]amino]phenyl]-2E-propenoic acid, bis(trifluoroacetate salt)], the IC50 is 8270 nM in assay [1] and 4.93 nM in assay [2].
Taken in the same sequence, the figures for `Cc1cc(/C=C/C(=O)O)cc(C)c1NC(=O)c1cccc(NC2=NCCN2)c1` [Example 25, 3-[4-[[[3-[(4,5-dihydroimidazol-2-yl)amino]-phenyl]carbonyl]amino]-3,5-dimethylphenyl]-2E-propenoic acid, trifluoroacetate salt] were 1830 nM and 2.82 nM.
As to `Cc1cc(/C=C/C(=O)O)cc(C)c1NC(=O)c1cccc(NC(N)=O)c1` [Example 27, 3-[4-[[[3-[(aminocarbonyl)amino]phenyl]carbonyl]-amino]-3,5-dimethylphenyl]propenoic acid, trifluoroacetate salt], the IC50 is more than 100000 nM in assay [1] and 204 nM in assay [2].
On to `N=C(N)Nc1cccc(C(=O)Nc2cc(Cl)c(/C=C/C(=O)O)c(Cl)c2)c1` [Example 29, 3-[4-[[[3-[(aminoiminomethyl)amino]phenyl]carbonyl]-amino]-2,6-dichlorophenyl]propenoic acid, dihydrochloride dihydrate], for which the figures for the IC50 in assay [1] and in assay [2] were 25400 nM and 1830 nM, respectively.
Taken in the same sequence, the figures for `COc1cc(NC(=O)c2cccc(NC(=N)N)c2)ccc1/C=C/C(=O)O` [Example 31, 3-[4-[[[3-(aminoiminomethyl)amino]phenyl]carbonyl]-amino]-2-methoxyphenyl]propenoic acid, trifluoroacetate salt] were 69.1 nM and 9.66 nM.
On the same counts, the results for `Cc1cc(NC(=O)c2cccc(NC(=N)N)c2)ccc1/C=C/C(=O)O` [Example 33, 3-[4-[[[3-[(aminoiminomethyl)amino]phenyl]carbonyl]-amino]-2-methylphenyl]propenoic acid, trifluoroacetate salt] are 121 nM and 73.3 nM.
